Test results published in patent US20220160812A1, “A PHARMACEUTICALLY ACTIVE SUBSTANCE” (Cytopharma GmbH, priority 2019, published 2022).
Non-standard residues stand in square brackets, D forms with d. Residues, ends and D or L forms follow the SMILES beside them.

Legend:
A375 melanoma cells [1] = assay: cell vitality FACS analysis (region R-1, FSC/SSC), A375 melanoma cells; type: cell-based, human; conditions: A375, Protocol A, about 24 hours, FIG. 7
Procedure: (§1) To transfer adherent cells (A375 and BxPC-3 cells) after culture, cells are washed twice with PBS. To detach the cells, the enzyme biotase is used according to the manufacturer's instructions. For this purpose, after washing with PBS, the cells are mixed with biotase (5 ml of biotase solution per 75 cm^2 surface of the cell culture bottles) and incubated for 5 min at 37 degrees Celsius, and the biotase is separated by centrifugation. Cells cultivated in suspension (MEC-1 and lymphocytes) were transferred by dilution. The cells are suspended in culture medium and counted, each time 1.5×10^5 cells/cm^2 are seeded in 48-well plates and cultured for between 1.5 and 24 hours at 37 degrees Celsius, 5% CO2. Peptides are pre-diluted from stock solution with culture medium and 200 μl of peptide solution added so that final concentrations of 30 to 500 μM peptide are present in at most 1% (v/v) DMSO. As control solutions, culture medium without peptide (DMSO-containing) in culture medium or etoposide solution is added. After incubating the cells for several hours, the cell supernatant is transferred to a FACS tube for each batch and, after washing the cells with PBS, the wash solution is added. Then the cells are incubated with 200 μl of biotase solution for 10 min, 37° C., the cells with the biotase are also transferred to the FACS tube and the cells are collected by centrifugation for 5 min. The cell pellet is suspended in 500 μl of serum-free culture medium, then 1.5 ml of cold 80% ethanol (ethanol/PBS-80/20, v/v, stored at −20° C.) is added, the FACS tubes sealed and stored at −20 degrees Celsius for 15 to 18 h. Thereafter, the cells are centrifuged for 5 minutes at 120 g, suspended after removal of the supernatant in 2 ml PBS and incubated at 37 degrees Celsius for 30 minutes. After re-centrifugation, the cells are suspended in 0.5 ml DAPI solution and incubated for 15 min at 20 degrees Celsius in the dark. Thereafter, the cells are stored dark for a maximum of four hours in an ice bath, followed by the FACS analysis.
For suspension cells (MEC-1 and lymphocytes/PBMC) and for adherent cells analyzed according to Protocol A, FACS analysis to determine subG1 cell cycle and vital cell fractions was done on a Becton Dickinson LSR Fortessa flow cytometer. The analysis by FACS including subG1 and vital cell analysis according to protocol B was performed with a Cytomics FC 500 MPL flow cytometer from Beckman Coulter.
Changes of the cell form during cell death by apoptosis are documented in the literature (Lizard et al. 1995; Taga et al. 2000; Vermes et al., 2000). The protocols for cell cultivation, treatment and preparation of the cells before flow cytometry is detailed in separate examples. Cell suspensions of cell lines A375, BxPC-3, MEC-1 or of primary lymphocytes (see separate example of lymphocyte preparation) are analyzed by flow cytometry. The data are further analyzed by using the program “Flowing Software 2”. The data of light scattering are drawn in a two-dimensional FSC/SSC plot. Since the position in the FSC/SSC plot of apoptotic cells changes relative to non-apoptotic cells (Vermes et al., 2000), a region (R-1) is drawn representing mainly non-apoptotic cells and excluding cells with both low FSC and low SSC values and excluding cells with high values of FSC and/or SSC (FIG. 1). The regions are individually selected for each cell type (A375, BxPC-3, MEC-1 and primary lymphocytes). The percentage of untreated non-apoptotic cells in the region R-1 relative to total cells is set to 100%, representing 100% vital cells. The fraction (%) of cells in R-1 relative to the total number of cells in case of cell treatment by certain peptides or by cytotoxic drugs results in cell vitality, below 100%, thereby indicating a loss of cell vitality by the treatment. […]

A375 melanoma cells [2] = assay: subG1 cell cycle FACS apoptosis assay, A375 melanoma cells; type: cell-based, human; conditions: about 24 hours, FIG. 3
Procedure: as §1
The adherent cells (A375 and BxPC-3 cells and MDA-MB-231, respectively) are seeded 24 hours before induction in 6-well plates in culture medium. For this, the cells are washed with PBS, then incubated with trypsin/EDTA solution at 37 degrees Celsius and suspended in culture medium. The 6-well plates are loaded with 1×10^5 cells/cm^2 in culture medium and the cells incubated for 24 hours until induction with the peptides in the incubator. For induction, the peptides are diluted in fresh culture medium. As control solutions, culture medium without peptide (DMSO-containing) in culture medium or etoposide solution is added. The cells are washed with PBS. Thereafter the peptide solution in culture medium is added to the cells. After incubation in the incubator (37° C., 5% CO2) between 1.5 and 24 hours, the cell supernatant is transferred to 15 ml centrifuge tubes, the cells are washed with 0.75 ml PBS and then with 0.5 ml versene solution. Both washings are combined with the cell supernatant. The cells are then added with 0.5 ml of trypsin/EDTA solution and incubated at about 37° C. for at most 10 minutes until the cells detached. The cell suspension is combined with cell supernatant and washings and centrifuged at about 130 g for about 10 minutes. After removing the supernatant, the cells are suspended in 400 μl of cell culture medium (without serum) and mixed with 1.2 ml of 80% ethanol/20% PBS (v/v) and incubated for 1 to 7 days at −20° C. For analysis, the cells are centrifuged at 130 g for 10 min, suspended in 2 ml PBS, and centrifuged again for 5 min. The cells are suspended in 700 μl PI buffer and incubated for 10 min at 37° C. in the dark. Subsequently, the cells are stored dark for a maximum of four hours in an ice bath, then the FACS analysis is performed.
The proportion of cells which have died was determined by two methods, both rely on the analysis of cells by flow cytometry, often called FACS analysis. […]

[3] = tested on: human peripheral blood mononuclear cells (Lymphocyte, PBMC); assay: cell vitality FACS analysis (region R-1), healthy lymphocytes (PBMC); type: cell-based; conditions: Protocol A, 50, 100, 200 μM, about 24 hours per Examples (FIG. 11 legend: about 2 hours)
Procedure: Human lymphocytes are obtained as peripheral blood mononuclear cells (“PBMC”) from whole blood. For this purpose, 15 ml of heparinized whole blood (heparin tube, Sarstedt) were layered on 15 ml Biocoll in LeucoSep tubes and obtained by centrifugation (10 min at 120 g) as the top layer (“lymphocytes”) and so separated from other cells. For induction with peptides, 1×10^6 lymphocytes are seeded into each well of the 48-well plates.
After addition of the peptides diluted in culture medium to the cells (MEC-1 or lymphocytes) in the respective cavity, the cells are cultured for 2 to 4 hours at 37 degrees Celsius and 5% CO2. The cell suspension is centrifuged in centrifuge tubes at 120 g, the cells are suspended in 500 μl serum-free culture medium, then 1.5 ml of cold 80% ethanol (ethanol/PBS-80/20, v/v; stored at −20 degrees Celsius) is added, the FACS tubes sealed and stored at −20 degrees Celsius for a maximum of 18 h. The cells are centrifuged for 5 min at 120 g and suspended in 2 ml PBS, then incubated for 30 min at 37 degrees Celsius. After renewed centrifugation, the cells are suspended in 0.5 ml DAPI solution and incubated for 15 min at 20 degrees Celsius in the dark. Thereafter, the cells are stored dark for a maximum of four hours in an ice bath, then the FACS analysis.
as §1
Changes of the cell form during cell death by apoptosis are documented in the literature (Lizard et al. 1995; Taga et al. 2000; Vermes et al., 2000). The protocols for cell cultivation, treatment and preparation of the cells before flow cytometry is detailed in separate examples. Cell suspensions of cell lines A375, BxPC-3, MEC-1 or of primary lymphocytes (see separate example of lymphocyte preparation) are analyzed by flow cytometry. The data are further analyzed by using the program “Flowing Software 2”. The data of light scattering are drawn in a two-dimensional FSC/SSC plot. […]

[4] = any concentration (100, 200, 500 μM)

Molecule | efficiency (decrease of cell vitality) in view of Peptide SEQ C1 (A375 melanoma cells [1]; 200 μM) | efficiency (decrease of cell vitality) in view of Peptide SEQ C1 (A375 melanoma cells [1]; 500 μM) | decrease of cell vitality, comparison in words (A375 melanoma cells [1]; [4]) | decrease of cell vitality, comparison in words (A375 melanoma cells [1]; any concentration (100, 200, 500 μM), listed as SEQID NO 38) | apoptosis efficiency (subG1), comparison in words (A375 melanoma cells [2]; A375, Protocol A, 100, 200, 500 μM) | apoptosis efficiency (subG1) in view of Peptide SEQ C1 (A375 melanoma cells [2]; A375, Protocol A, any concentration (100, 200, 500 μM)) | decrease of cell vitality, comparison in words (A375 melanoma cells [1]; 100 μM) | tolerance by healthy Lymphocyte (PBMC) cells (cell vitality) [3]
s-q-t-v-q-k-w-m-v-v-y-f-r [SEQID No 38] | at least threefold | at least tenfold | clear improvement over peptides SEQID NO 27 and SEQID NO 39 at any concentration | significantly greater decrease than the peptide of the prior art (Peptide SEQ C1) | clear improvement over peptide SEQID NO 27 at a concentration below 500 μM and over Peptide SEQID NO 39 at a concentration above 100 μM | at least tenfold |  | 
d-k-w-m-v-v-y-f-r-d [SEQID No 39] |  |  | significantly greater decrease than the peptide of the prior art (Peptide SEQ C1) |  |  |  | higher apoptosis rate at a concentration of 100 μM as peptide SEQID NO 27 | 
CSCC[C@@H](NC(=O)[C@@H](Cc1c[nH]c2ccccc12)NC(=O)[C@@H](CCCCN)NC(=O)[C@@H](CCCCN)NC(=O)[C@@H](CO)NC(=O)[C@@H](CCCNC(=N)N)NC(=O)[C@H](N)CCC(=O)O)C(=O)N[C@@H](C(=O)N[C@@H](C(=O)N[C@H](Cc1ccc(O)cc1)C(=O)N[C@H](Cc1ccccc1)C(=O)N[C@H](CCCNC(=N)N)C(=O)N[C@H](CCCCN)C(=O)O)C(C)C)C(C)C [SEQID No 31, e-r-s-k-k-w-m-v-v-y-f-r-k] (H-[dE][dR][dS][dK][dK][dW][dM][dV][dV][dY][dF][dR][dK]-OH; N-terminus and C-terminus assumed) |  |  |  |  |  |  |  | not remarkably damaged
